Laboratory results published in EP0369733A2, “Fluorescent indicator dyes for alkali metal cations, their preparation and use” (THE REGENTS OF THE UNIVERSITY OF CALIFORNIA, priority 1988, dated 1990).

Columns and labels:
[1] = Cation titration followed by absorbance or fluorescence excitation spectra: Na⁺ binding
Description: (§1) • Footnote a: For molecular structures, see Fig. 1. • Footnote b: Except where otherwise noted, these dissociation constants were measured with the chelator dissolved in 0.1 M tetramethylammonium chloride, at a pH held high enough with 1-5 mM tris(hydroxymethyl)aminomethane for protonation to be insignificant. The absorbance spectrum, or the fluorescence excitation spectrum for those compounds (2GG, 2NN, 2OO, 2PP, 3NN) with acronyms was measured as a function of the concentration of cation added as a solid or concentrated aqueous solution of the halide salt. No correction has been made for the changing ionic strength of the solution, which started from 0.1 M and increased, but the absorbances and fluorescence amplitudes were applied for dilution of the dye and any slight quenching due to high concentrations of Cl⁻. • Footnote c: These protonation constants were determined in 0.1 M tetramethylammonium chloride, 10 mM tris(hydroxymethyl)aminomethane, titrated with 5 M H₃PO₄ to successively lower pH values measured with a Radiometer PHM84 meter. […] The first number is the wavelength in nanometers, followed in parentheses by 10⁻³ x the corresponding extinction coefficient, M⁻¹cm⁻¹. […] Emission maxima are not corrected for the spectral sensitivity of the emission detection. Quantum efficiencies were measured (13) by comparing the integral of the corrected emission spectrum with the corresponding integral for a solution of quinine bisulfate in 1 N H₂SO₄ of matched absorbance at the excitation wavelength.
(§2) Affinities for other cations were usually measured by titrating aqueous solutions of the indicator with metal chlorides added either as solid or from concentrated stock solutions, taking care to minimize dilution and correct for it. A convenient way to mass-produce premeasured micromole to millimole aliquots of solid NaCl or KCl was to pipet saline solutions into polypropylene micro test tubes and evaporate the water in an oven. The standard ionic background was again 100 mM tetramethylammonium chloride, usually with a few mM of tris(hydroxymethyl)-aminomethane base to hold the pH high enough (pH 8-9) to insure that protonation was negligible. This convenient titration procedure had the slight disadvantage that the ionic strength was not constant, especially when large quantities of a salt had to be added due to weak affinities. […] When constant ionic strength was desired, the chelator was made up at identical concentrations in matched solutions of NaCl, KCl, or tetramethylammonium chloride, then these stocks were mixed in the desired proportions. All measurements were made at room temperature (22°, ±2° C).

[2] = Cation titration followed by absorbance or fluorescence excitation spectra: K⁺ binding; conditions: inert background cations such as tetramethylammonium or Cs⁺, high pH
Description: as §1
Affinities for other cations were usually measured by titrating aqueous solutions of the indicator with metal chlorides added either as solid or from concentrated stock solutions, taking care to minimize dilution and correct for it. […] This convenient titration procedure had the slight disadvantage that the ionic strength was not constant, especially when large quantities of a salt had to be added due to weak affinities. […]

[3] = Cation titration followed by absorbance or fluorescence excitation spectra: Li⁺ binding; conditions: for Kd: 0.1 M tetramethylammonium chloride, 1-5 mM tris(hydroxymethyl)aminomethane, high pH, read-out: Dissociation constants (Kd) in mM for Li⁺
Description: as §1, §2

[4] = UV absorbance spectra without and with saturating cation; type: physicochemical
Description: as §1
(§3) UV absorbance spectra were recorded initially on a Cary 210 and later on a Perkin-Elmer Lambda Array 3840 spectrophotometer. Fluorescence excitation and emission spectra and quantum efficiencies were measured on a Spex Fluorolog 111 as described previously (13).

[5] = Fluorescence excitation/emission spectra and quantum efficiency; type: physicochemical; conditions: for Quantum efficiency -Na⁺ / Quantum efficiency +Na⁺: relative to quinine bisulfate in 1 N H₂SO₄ (0.55); for Quantum efficiency +Na⁺: saturating Na⁺
Description: as §1, §3

[6] = Non-specific quenching of fluorescence by CsCl; type: physicochemical
Description: Selectivities of SBFP and SBFI against other cations are also adequate (Table I). […] Ratioing therefore not only normalizes for amount of dye in the optical path but also improves the discrimination against pH changes. […] Dissociation constants for Mg²⁺ and Ca²⁺ are high enough (about 60 mM and 38 mM respectively) for cytosolic levels of those ions to have insignificant effect. Curiously, Ca²⁺ is unique in causing a large hypsochromic shift of the emission peak, to 432 nm. All the above-mentioned salts except tetramethylammonium seem to cause a slight non-specific quenching of SBFI at very high concentrations. For example, CsCl causes no spectral shift at all, but 100, 200, and 500 mM CsCl depress the fluorescence by 9, 14, and 21% from the metal-free level. This effect is not a heavy-atom effect of Cs, since large excesses of Li⁺, Na⁺, and K⁺ also slightly quench their SBFI complexes. It may represent weak quenching by Cl⁻, since acetate and fluoride gave much less of the effect.

physchem = conditions: 0.1 m tetramethylammonium chloride
Description: • Footnote a: For molecular structures, see Fig. 1. • Footnote b: Except where otherwise noted, these dissociation constants were measured with the chelator dissolved in 0.1 M tetramethylammonium chloride, at a pH held high enough with 1-5 mM tris(hydroxymethyl)aminomethane for protonation to be insignificant. […] No correction has been made for the changing ionic strength of the solution, which started from 0.1 M and increased, but the absorbances and fluorescence amplitudes were applied for dilution of the dye and any slight quenching due to high concentrations of Cl⁻. • Footnote c: These protonation constants were determined in 0.1 M tetramethylammonium chloride, 10 mM tris(hydroxymethyl)aminomethane, titrated with 5 M H₃PO₄ to successively lower pH values measured with a Radiometer PHM84 meter.
Proton dissociation constants of the chelators were measured by spectrophotometry or spectrofluorometry of buffered solutions, containing either 100 mM tetramethylammonium chloride as inert supporting electrolyte, or 121.5 mM K⁺, 13.5 mM Na⁺, and 1 mM Mg²⁺ to simulate the cation environment of vertebrate cytoplasm (14). Traces of UV-absorbing impurities in the tetramethylammonium chloride (Alfa Inorganics) were removed by filtration through acid-­washed activated charcoal. The concentration of the tetramethylammonium chloride was then measured by chloride titration, and the absence of significant Na⁺ contamination was verified with a sodium-selective glass electrode (Microelectrodes Inc.). When the chelators contained two protonatable nitrogens, the curve of absorbance or fluorescence versus pH was analyzed by computerized least-squares fitting to the equations for two arbitrary proton equilibria (15), with the added assumption that the two protonations each caused the same change in extinction coefficient or fluorescence.

Kd ([1]; 0.1 M tetramethylammonium chloride, 1-5 mM tris(hydroxymethyl)aminomethane, pH high enough for protonation to be insignificant, 22°, read-out: Dissociation constants (Kd) in mM for Na⁺): 7.4 mM | Na⁺ affinity ([1]; association constant, inert background cation (tetramethylammonium)): 166 M⁻¹ | Kd ([1]; summary statement, conditions not specified, read-out: dissociation constant (Na⁺), range achieved): 5 to 20 mM | K⁺ affinity [2]: 7 M⁻¹ | Li⁺ affinity [3]: 15 M⁻¹ | Kd ([3]; listed as 2PP (SBFI)): 68 mM | Kd ([3]; listed as SBFI): 67 mM | Absorbance maxima -Na⁺ (wavelength) ([4]; 100 mM tetramethylammonium chloride plus 1-5 mM Tris, no Na⁺): 346 nanometers | Absorbance maxima +Na⁺ (wavelength) ([4]; enough NaCl added (0.2-1 M) to saturate the Na⁺ binding): 334 nanometers | Absorbance maxima -Na⁺ (extinction coefficient) ([4]; number is 10⁻³ x the extinction coefficient, lower limits for most compounds, no Na⁺): 42000 M⁻¹ cm⁻¹ | Absorbance maxima +Na⁺ (extinction coefficient) ([4]; number is 10⁻³ x the extinction coefficient, lower limits, saturating NaCl (0.2-1 M)): 47000 M⁻¹ cm⁻¹ | extinction coefficients ([4]; without to with Na⁺, in M-1·cm-1 (unit assumed)): 42,000-47,000 | Emission maxima -Na⁺ ([5]; 100 mM tetramethylammonium chloride, no Na⁺, not corrected for detector sensitivity): 551 nanometers | emission peak with Ca²⁺ ([5]; Ca²⁺ bound, large hypsochromic shift): 432 nm | excitation peak wavelength without Na⁺ ([5]; Na⁺-K⁺ mixtures, sum 135 mM, K⁺ only): 344 nm | excitation peak wavelength with Na⁺ ([5]; Na⁺-K⁺ mixtures, sum 135 mM, Na⁺ bound): 336 nm | Quantum efficiency -Na⁺ ([5]; no Na⁺, listed as 2PP (SBFI)): .045 | Quantum efficiency -Na⁺ ([5]; no Na⁺, listed as SBFI): 0.045 | Emission maxima +Na⁺ ([5]; saturating NaCl, not corrected for detector sensitivity): 525 nanometers | Quantum efficiency +Na⁺ ([5]; listed as 2PP (SBFI)): .063 | Quantum efficiency +Na⁺ ([5]; listed as SBFI): 0.08 | pKa (physchem): 6.1
Compound: COc1cc2cc(-c3ccc(C(=O)O)cc3C(=O)O)oc2cc1N1CCOCCOCCN(c2cc3oc(-c4ccc(C(=O)O)cc4C(=O)O)cc3cc2OC)CCOCC1 [Compound 2PP, N,N-bis-(2-(2,4-dicarboxyphenyl)-5-methoxybenzofuran-6-yl)-diaza[15]-crown-5]
depression of fluorescence from the metal-free level ([6]; 100 mM CsCl): 9% | depression of fluorescence from the metal-free level ([6]; 200 mM CsCl): 14% | depression of fluorescence from the metal-free level ([6]; 500 mM CsCl): 21%
